Laboratory results from patent US12171230B2, “Herbicidal compositions” (Bayer Aktiengesellschaft, priority 2018, dated 2024).

Assays:
Format in all cases: in vivo
Viola tricolor [1] = experiment: Post-emergence herbicidal action against Viola tricolor
Centaurea cyano = experiment: Post-emergence herbicidal action against Centaurea cyano
Method in brief: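 Formulations (spray powders or emulsion concentrates) applied at various doses onto foliage using 300 to 800 l/ha water; plants treated at three-leaf stage, three weeks post-sowing in sandy loam under greenhouse conditions.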

Lamium purpureum = experiment: Post-emergence herbicidal action against Lamium purpureum; conditions: for Herbicidal action: 1 g a.i./ha
Method: When the observed efficacies exceed the formal sum total of the values of the tests with individual applications, they also exceed the expected value according to Colby, which is calculated using the formula below and is likewise regarded as an indication of synergism (cf. S. R. Colby; in Weeds 15 (1967) p. 20 to 22): E^C=A+B−([…])
Here: • A=efficacy of the active compound (A) in % at an application rate of a g a.i./ha; • B=efficacy of the active compound (B) in % at an application rate of b g a.i./ha; • E^C=expected value of the effect of the combination (A)+(B) in % at the combined application rate a+b g a.i./ha.
Seeds or rhizome pieces of mono- and dicotyledonous weeds are placed in sandy loam in pots, covered with soil and grown in a greenhouse under good growth conditions (temperature, air humidity, water supply). Three weeks after sowing, the test plants were treated at the three-leaf stage with the compositions according to the invention. The compositions according to the invention formulated as spray powders or as emulsion concentrates were sprayed onto the green plant parts in various dosages with an application rate of 300 to 800 l/ha of water (equivalent). After the test plants have been left to stand in the greenhouse under optimal growth conditions for about 3 to 4 weeks, the action of the preparations is scored visually in comparison to untreated controls. The compositions according to the invention also have good post-emergence herbicidal activity against a broad spectrum of economically important gramineous and broadleaf weeds.

Phalaris minor [2] = experiment: Post-emergence herbicidal action against Phalaris minor
Galium aparine = experiment: Post-emergence herbicidal action against Galium aparine; conditions: for Herbicidal action: 28 DAT
Method in brief: (§1)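 Greenhouse pot test: three-leaf-stage plants, three weeks from sowing, sprayed with spray-powder or emulsion-concentrate formulations at several dosages (300 to 800 l/ha water). Efficacy rated visually against untreated plants some 3 to 4 weeks later, with Colby formula giving expected combination effect.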

Alopecurus myosuroides = experiment: Post-emergence herbicidal action against Alopecurus myosuroides; conditions: (Z119) post-emergence, g of a.i./ha: 16, 1, 270, 16 + 270, 1 + 270
Text: (§2) The following abbreviations are used in the description and the tables that follow: • g of a.i./ha=grams of active substance (active ingredient) (=100% active compound) per hectare; • The sum total of the effects of the individual applications is reported under E^A; • expected values according to Colby are each reported under E^C.
(§3) The rating period is reported in days after application (DAT).

Poa annua = experiment: Post-emergence herbicidal action against Poa annua
Method in brief: as §1

Bromus sterilis [3] = experiment: Post-emergence herbicidal action against Bromus sterilis
Lolium rigidum [4] = experiment: Post-emergence herbicidal action against Lolium rigidum
Text: as §2, §3

Phalaris minor [5] = experiment: Post-emergence herbicidal action against Phalaris minor; remark: listed apart in the source
Text: as §2, §3

[6] = tested on: Lolium rigidum (resistant biotype); experiment: Post-emergence herbicidal action against Lolium rigidum (resistant biotype)
Text: as §2, §3

Viola tricolor [7] = experiment: Post-emergence herbicidal action against Viola tricolor; conditions: (Z119) post-emergence; g of a.i./ha: 16, 270, 16 + 270
Text: as §2, §3

Matricaria inodora = experiment: Post-emergence herbicidal action against Matricaria inodora; conditions: for Herbicidal action: 1 g a.i./ha
Lolium rigidum [8] = experiment: Post-emergence herbicidal action against Lolium rigidum; remark: listed apart in the source
Bromus sterilis [9] = experiment: Post-emergence herbicidal action against Bromus sterilis; remark: listed apart in the source
Text: as §2, §3

[10] = (Z119) post-emergence, g of a.i./ha: 1, 270, 1 + 270
[11] = 14 DAT, resistant biotype, 1 g a.i./ha

Molecule `C=C[C@]1(C(=O)N[C@@H]2C=C(C(=O)OC)OC2)CC(c2cc(F)cc(F)c2)=NO1` [Compound A5, methyl (3R)-3-[[(5S)-3-(3,5-difluorophenyl)-5-vinyl-4H-isoxazole-5-carbonyl]amino]-2,3-dihydrofuran-5-carboxylate] has a Herbicidal action (Viola tricolor [1]; 14 DAT, 16 g a.i./ha) of 60%, a Herbicidal action (Viola tricolor [1]; 28 DAT, 4 g a.i./ha) of 40% and a Herbicidal action (Viola tricolor [1]; 28 DAT, 16 g a.i./ha) of 40%. The Herbicidal action (Centaurea cyano; 14 DAT, 1 g a.i./ha) was 20%, the Herbicidal action (Centaurea cyano; 28 DAT, 16 g a.i./ha) was 75% and the “Herbicidal action 28 DAT against Centaurea cyanus” value (Centaurea cyano; (Z119) post-emergence, g of a.i./ha: 16, 270, 90, 30, 16 + 270, 16 + 90, 16 + 30) was 75%. For the same molecule, the Herbicidal action (Lamium purpureum; 14 DAT) was 60%, the Herbicidal action (Lamium purpureum; 28 DAT) was 40% and the “Herbicidal action 14 DAT against Lamium purpureum L.” value (Lamium purpureum; (Z119) post-emergence, g of a.i./ha by row: 16, 30, 16 + 30) was 80%. The Herbicidal action (Phalaris minor [2]; 14 DAT, 1 g a.i./ha) was 60%, the Herbicidal action (Phalaris minor [2]; 14 DAT, 16 g a.i./ha) was 85% and the Herbicidal action (Phalaris minor [2]; 28 DAT, 1 g a.i./ha) was 30%. For the same molecule, the Herbicidal action (Phalaris minor [2]; 28 DAT, 16 g a.i./ha) was 70%, the Herbicidal action (Galium aparine; 1 g a.i./ha) was 50% and the Herbicidal action (Galium aparine; 16 g a.i./ha) was 70%. For the same molecule, the “Herbicidal action 14 DAT against Galium aparine” value (Galium aparine; (Z119) post-emergence, g of a.i./ha by row: 1, 30, 1 + 30) was 60%, the “Herbicidal action 14 DAT against Alopecurus myosuroides” value (Alopecurus myosuroides; 1 g of a.i./ha) was 50% and the “Herbicidal action 14 DAT against Alopecurus myosuroides” value (Alopecurus myosuroides; 16 g of a.i./ha) was 85%. The Herbicidal action (Poa annua; 14 DAT, 1 g a.i./ha) was 30%, the Herbicidal action (Poa annua; 14 DAT, 16 g a.i./ha) was 70% and the Herbicidal action (Poa annua; 28 DAT, 1 g a.i./ha) was 20%. The Herbicidal action (Bromus sterilis [3]; 14 DAT, 4 g a.i./ha) was 75%, the Herbicidal action (Bromus sterilis [3]; 14 DAT, 16 g a.i./ha) was 80% and the Herbicidal action (Bromus sterilis [3]; 28 DAT, 1 g a.i./ha) was 30%. For the same molecule, the “Herbicidal action 28 DAT against Lolium rigidum” value (Lolium rigidum [4]; (Z119) post-emergence, g of a.i./ha: 16, 4, 1, 270, 90, 30, 16 + 270, 16 + 90, 16 + 30, 4 + 270, 4 + 90, 4 + 30, 1 + 270, 1 g of a.i./ha) was 30%, the “Herbicidal action 28 DAT against Lolium rigidum” value (Lolium rigidum [4]; (Z119) post-emergence, g of a.i./ha: 16, 4, 1, 270, 90, 30, 16 + 270, 16 + 90, 16 + 30, 4 + 270, 4 + 90, 4 + 30, 1 + 270, 4 g of a.i./ha) was 50% and the “Herbicidal action 28 DAT against Lolium rigidum” value (Lolium rigidum [4]; (Z119) post-emergence, g of a.i./ha: 16, 4, 1, 270, 90, 30, 16 + 270, 16 + 90, 16 + 30, 4 + 270, 4 + 90, 4 + 30, 1 + 270, 16 g of a.i./ha) was 60%. For the same molecule, the “Herbicidal action 28 DAT against Phalaris minor” value (Phalaris minor [5]; (Z119) post-emergence, g of a.i./ha: 16, 4, 270, 90, 30, 16 + 270, 16 + 90, 16 + 30, 4 + 270, 4 + 30, 4 g of a.i./ha) was 60%, the “Herbicidal action 28 DAT against Phalaris minor” value (Phalaris minor [5]; (Z119) post-emergence, g of a.i./ha: 16, 4, 270, 90, 30, 16 + 270, 16 + 90, 16 + 30, 4 + 270, 4 + 30, 16 g of a.i./ha) was 70% and the “Herbicidal action 14 DAT against Phalaris minor” value (Phalaris minor [5]; (Z119) post-emergence, g of a.i./ha: 16, 4, 270, 90, 270, 16 + 270, 16 + 90, 4 + 270) was 85%. The “Herbicidal action 28 DAT against Lolium rigidum (resistant biotype)” value [6, 10] was 20%, the “Herbicidal action 14 DAT against Viola tricolor” value (Viola tricolor [7]) was 60% and the Herbicidal action (Matricaria inodora; 14 DAT) was 30%. It also gave a Herbicidal action (Matricaria inodora; 28 DAT) of 10%, a Herbicidal action (Lolium rigidum [8]; 14 DAT, 1 g a.i./ha) of 30% and a Herbicidal action (Lolium rigidum [8]; [11]) of 30%. It also gave a Herbicidal action (Lolium rigidum [8]; 14 DAT, resistant biotype, 16 g a.i./ha) of 70%, a Herbicidal action (Lolium rigidum [8]; 28 DAT, 1 g a.i./ha) of 30% and a Herbicidal action (Lolium rigidum [8]; 28 DAT, 16 g a.i./ha) of 60%. For the same molecule, the Herbicidal action (Lolium rigidum [8]; 28 DAT, resistant biotype, 1 g a.i./ha) was 20%, the “Herbicidal action 28 DAT against Bromus sterilis” value (Bromus sterilis [9]; [10]) was 30% and the “Herbicidal action 14 DAT against Bromus sterilis” value (Bromus sterilis [9]; (Z119) post-emergence, g of a.i./ha: 1, 270, 90, 1 + 270, 1 + 90) was 50%.
With `COC(=O)C1=C[C@@H](NC(=O)[C@@]2(C)CC(c3cc(F)cc(F)c3)=NO2)CO1` [Compound A6, methyl (3R)-3-[[(5R)-3-(3,5-difluorophenyl)-5-methyl-4H-isoxazole-5-carbonyl]amino]-2,3-dihydrofuran-5-carboxylate] the Herbicidal action (Viola tricolor [1]; 28 DAT, 4 g a.i./ha) was 50%, the Herbicidal action (Viola tricolor [1]; 28 DAT, 16 g a.i./ha) was 60% and the Herbicidal action (Centaurea cyano; 14 DAT, 1 g a.i./ha) was 40%. The Herbicidal action (Centaurea cyano; 14 DAT, 4 g a.i./ha) was 85%, the Herbicidal action (Centaurea cyano; 28 DAT, 1 g a.i./ha) was 40% and the Herbicidal action (Centaurea cyano; 28 DAT, 4 g a.i./ha) was 70%. The “Herbicidal action 28 DAT against Lamium purpureum L.” value (Lamium purpureum; 1 g of a.i./ha) was 75%, the “Herbicidal action 14 DAT against Lamium purpureum L.” value (Lamium purpureum; 4 g of a.i./ha) was 85% and the Herbicidal action (Phalaris minor [2]; 28 DAT, 16 g a.i./ha) was 90%. For the same molecule, the “Herbicidal action 28 DAT against Galium aparine” value (Galium aparine; 1 g of a.i./ha) was 60%, the “Herbicidal action 28 DAT against Poa annua L.” value (Poa annua; 16 g of a.i./ha) was 70% and the Herbicidal action (Poa annua; 28 DAT, 1 g a.i./ha) was 50%. For the same molecule, the Herbicidal action (Poa annua; 28 DAT, 16 g a.i./ha) was 70%, the Herbicidal action (Bromus sterilis [3]; 14 DAT, 4 g a.i./ha) was 80% and the Herbicidal action (Bromus sterilis [3]; 14 DAT, 16 g a.i./ha) was 85%. The Herbicidal action (Bromus sterilis [3]; 28 DAT, 1 g a.i./ha) was 50%, the “Herbicidal action 28 DAT against Lolium rigidum” value (Lolium rigidum [4]; 16 g of a.i./ha) was 90% and the “Herbicidal action 28 DAT against Phalaris minor” value (Phalaris minor [5]; 16 g of a.i./ha) was 90%. The “Herbicidal action 28 DAT against Lolium rigidum (resistant biotype)” value ([6]; 16 g of a.i./ha) was 70%, the Herbicidal action (Matricaria inodora; 14 DAT) was 40% and the “Herbicidal action 14 DAT against Matricaria inodora” value (Matricaria inodora; 16 g of a.i./ha) was 70%. For the same molecule, the Herbicidal action (Lolium rigidum [8]; [11]) was 50%, the Herbicidal action (Lolium rigidum [8]; 28 DAT, resistant biotype, 16 g a.i./ha) was 70% and the “Herbicidal action 28 DAT against Bromus sterilis” value (Bromus sterilis [9]; (Z148) post-emergence, g of a.i./ha: 1, 270, 90, 30, 1 + 270, 1 + 90, 1 + 30) was 50%. The “Herbicidal action 14 DAT against Bromus sterilis” value (Bromus sterilis [9]; (Z148) post-emergence, g of a.i./ha: 4, 1, 270, 90, 30, 4 + 270, 4 + 90, 4 + 30, 1 + 30, 1 g of a.i./ha) was 75% and the “Herbicidal action 14 DAT against Bromus sterilis” value (Bromus sterilis [9]; (Z148) post-emergence, g of a.i./ha: 4, 1, 270, 90, 30, 4 + 270, 4 + 90, 4 + 30, 1 + 30, 4 g of a.i./ha) was 80%.
